In article PMC3266904, “Biochemical Discrimination between Selenium and Sulfur 2: Mechanistic Investigation of the Selenium Specificity of Human Selenocysteine Lyase” (PLoS ONE, 2012):

Molecular target: T1, human selenocysteine lyase (hSCL) (Homo sapiens, UniProt Q96I15)
T1 construct: gene SCLY
T1 sequence (Q96I15 8-445): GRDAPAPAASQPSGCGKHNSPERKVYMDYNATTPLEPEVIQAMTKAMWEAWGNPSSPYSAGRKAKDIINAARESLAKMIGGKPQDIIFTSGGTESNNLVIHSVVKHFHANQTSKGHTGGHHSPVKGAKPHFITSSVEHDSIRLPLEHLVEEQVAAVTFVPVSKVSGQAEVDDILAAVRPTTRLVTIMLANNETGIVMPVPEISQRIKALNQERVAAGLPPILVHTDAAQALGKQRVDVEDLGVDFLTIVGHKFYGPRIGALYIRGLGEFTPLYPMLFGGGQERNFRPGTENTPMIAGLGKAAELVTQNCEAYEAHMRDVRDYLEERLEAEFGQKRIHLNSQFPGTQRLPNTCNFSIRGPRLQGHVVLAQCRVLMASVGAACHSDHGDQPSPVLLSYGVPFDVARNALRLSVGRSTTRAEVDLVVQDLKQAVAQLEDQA
Experiment: UV/Vis spectrum of as-isolated protein
Assay type: binding
Conditions: 120 mM Tris pH 8.5, 2 mM TCEP; covalent internal aldimine

Cc1ncc(COP(=O)(O)O)c(C=O)c1O [PLP]
UV/Vis spectrum of as-isolated protein: the Shiff base linking the PLP cofactor to the protein exists mainly in the protonated
